From patent US20140248212A1, “NON-IMMUNOGENIC POSITRON EMISSION TOMOGRAPHY REPORTER GENE SYSTEMS” (THE REGENTS OF THE UNIVERSITY OF CALIFORNIA, priority 2011, published 2014)
Positions count from the first letter of the chain named. In names and notes the source's numbering stands.

How the values were obtained:
TK2-N93D/L109F = biological target: T1, TK2-N93D/L109F (Homo sapiens, UniProt O00142, L109F/N93D); test: Kinetic analyses of recombinant TK2 (NADH-dependent enzyme coupled assay), TK2-N93D/L109F; type: biochemical
T1 construct: hexahistidine (N, cleaved yes); SUMO (N, cleaved yes); made in house; host or cells: Escherichia coli BL21 (DE3) C41, modified pET14b
T1 sequence (O00142 51-265 N93D/L109F): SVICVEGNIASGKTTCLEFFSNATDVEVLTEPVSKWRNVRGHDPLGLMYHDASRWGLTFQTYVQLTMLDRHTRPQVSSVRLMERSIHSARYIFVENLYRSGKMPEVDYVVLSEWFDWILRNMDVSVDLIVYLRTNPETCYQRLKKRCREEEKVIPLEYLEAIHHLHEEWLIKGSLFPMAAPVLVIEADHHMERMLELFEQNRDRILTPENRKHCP
Experimental: FIG. 34 provides a table that illustrates the kinetics of the phosphorylation of D and L-nucleosides by the TK2 mutants. Kinase assays were performed with recombinant protein with 200 μM of the listed substrate.

TK2-N93D = biological target: T2, TK2-N93D (Homo sapiens, UniProt O00142, N93D); test: Kinetic analyses of recombinant TK2 (NADH-dependent enzyme coupled assay), TK2-N93D; settings: 37° C., 1 mM ATP
T2 sequence (O00142 51-265 N93D): T1 sequence (O00142 51-265 N93D/L109F) with F59L
Experimental: (§1) A NADH-dependent enzyme coupled assay (see, e.g. Agarwal, K. C., et al. (1978) Methods Enzymol. 51, 483-490) was used. Using a Cary UV spectrophotometer, measurements were made in triplicate at 37° C. in a buffer containing 100 mM Tris, pH 7.5, 100 mM KCl, 5 mM MgCl2, and 1 mM ATP. For data in which kobs is given, a single nucleoside concentration of 200 μM was used. For data in which both Km and kcat are given, the nucleoside concentration was varied between 15 and 500 μM. TK2 concentration in the cuvette was 400 nM. Data were fit to the Michaelis-Menten equation using SigmaPlot. […] Therefore, all of the kinetic data using the Michaelis-Menten equation without the Hill coefficient is presented.

TK2-L109F = biological target: T3, TK2-L109F (Homo sapiens, UniProt O00142, L109F); test: Kinetic analyses of recombinant TK2 (NADH-dependent enzyme coupled assay), TK2-L109F; settings: 37° C., 1 mM ATP
T3 sequence (O00142 51-265 L109F): T1 sequence (O00142 51-265 N93D/L109F) with D43N
Experimental: as §1

[1] = Biodistribution of PET reporter probes in mice (microPET/CT); type: in vivo, C57/BL6 mice; settings: for biodistribution in mice: C57/BL6 mice, FIG. 25B, no retention in normal tissues except clearance routes (GI tract, bladder)
Experimental: To identify candidate PRPs, eight nucleoside analogs (FIG. 7A) were synthesized that were amenable to ^18F labeling (the first criterion for PRPs). To identify PRP candidates with rapid clearance from normal tissues and low overall background (second criterion for PRGs), biodistribution studies in mice were performed. It was observed that natural (D) nucleosides had higher background than non-natural (L) nucleoside analogs. […] The next step was to identify a human nucleoside kinase that phosphorylates L-[^18F]FMAU and L-[^18F]FEAU, and can be converted into a new PRG that matches four criteria:
Initially, a group of nucleoside analogs amenable to fluorine-18 labeling were identified. These PET tracers, 5 of which were novel, were then screened to determine their biodistribution in C57/BL6 mice (n=3 for each PET tracer) through dynamic microPET scans. […] Rational design is utilized to introduce mutations into human nucleoside kinase thymidine kinase 2 (TK2) to improve the affinity of the kinase for the top candidate probe. The sensitivity and specificity of the novel PET reporter probe/gene pair was then determined in vitro and in vivo using a murine cancer model.
Animal studies were approved and carried out according to specific guidelines. C57/BL6 mice were injected with the indicated probe and underwent micro-PET/CT analyses at 1- and 3-h post probe injection (Inveon, Siemens Medical Solutions USA Inc.; microCAT; Imtek Inc.). For tumor imaging studies, SCID mice were injected subcutaneously on day −7 in the right and left flanks with 1×10^6 L1210-PRG-expressing cells in 50% v/v phosphate-buffered saline and 50% v/v Matrigel™ (BD Biosciences). For imaging experiments, mice were kept warm and under gas anesthesia (2% v/v isoflurane) and were injected intravenously with 200 μCi of ^18F-labeled probes. A 3-h interval was allowed between probe administration and microPET/CT scanning Static microPET images were acquired for 600 s. Image data were evaluated in three-dimensional histograms and reconstructed with a zoom factor of 2.1 using three-dimensional ordered set expectation maximization (OSEM) with 2 iterations followed by MAP (maximum a posteriori) reconstruction with 18 iterations (beta=0.1). Images were analyzed using OsiriX Imaging Software Version 3.8.

Baf-3 cells = test: Test of mutant htk2 reporter genes in Baf-3 cells; type: cell-based
Excerpt: The sensitivity of the described mutant htk2 imaging reporter genes can be evaluated through cell culture assays and PET imaging in mouse tumor models. […] Further tests regarding the effect of expressing these reporter genes on various cells can be used to determine other potential targets. […] Several enhanced htk2 mutant reporter genes have been designed and tested. Though the examples herein describe different probes and investigate the L probes mainly in mice, other mammals and in particular, humans are also within the scope of the invention. Silico models can be used to derive additional enhanced mutants from human htk2.

TK1 = test: [3H]dT uptake inhibition assay (competition with thymidine for TK1); type: cell-based
Excerpt: FIG. 6 provides a graph that illustrates data regarding an assay to determine whether candidate probes compete with thymidine for TK1.
Further evaluations can be carried out to precisely assess the affinity of these candidate probes for purified recombinant TK1.

[2] = Microsomal stability (glucuronidation conditions); type: in vitro ADME; settings: glucuronidation conditions (data not shown)
Excerpt: Regarding condition (d), one has obtained the microsomal stability profiles for 3 out of 4 compounds (FCU, FBU and FddUrd using the glucuronidation conditions).

L1210 cells = test: Effect of PRG overexpression on growth and dNTP pools of L1210 cells; type: cell-based, murine
Experimental: FIG. 9 provides graphs of data that illustrate how the overexpression of sr39tk affects cell growth and intracellular dNTP pools. L1210 cells were engineered to express: TK2-N93D (▪), TK2 (▴), HSV1-sr39tk (▾), and control vector eYFP (♦). Various graphs show the growth of the L1210 cells in (A) regular media and (B) regular media supplemented with 10 μM thymidine (dT). Other graphs show total cellular dNTP pools (measured by LC-MS) in cells grown in (C) regular media and (D) regular media supplemented with 10 μM dT; (*=below limit of detection).
L1210 cells transduced to overexpress the listed genes were grown in RPMI media (+/−10 μM dT) for 48 hours. The cells were then harvested and pyrimidine nucleotide pools were obtained via […].
To overcome the negative feedback limitation of TK2, a point mutation-N93D, was engineered. The work done by Piskur and colleagues on the structurally related Drosophila melanogaster deoxyribonucleoside kinase (see, e.g. Welin, M., et al. FEBS J 272:3733-3742, 2005) led one to predict that the N93D mutation would reduce the feedback inhibition of TK2 by dTTP. […] We then determined whether the enhanced resistance to feedback inhibition translates into improved TK2-N93D catalytic activity towards the L-[^18F]FMAU substrate. […]

Question: Which “decrease of kcat compared with TK2” value (TK2-N93D/L109F; 37° C., 1 mM ATP) does the source give for `Cc1cn([C@H]2C[C@H](O)[C@@H](CO)O2)c(=O)[nH]c1=O` [D-dT, D-thymidine] here?
Answer: 49%

Question: What about the “decrease of kcat relative to WT TK2” value (TK2-N93D) of the same molecule?
Answer: 77%

Question: And the “decrease of kcat/Km compared with WT TK2” value (TK2-N93D)?
Answer: 60%

Question: And the “change of Km by the L109F mutation” value (TK2-L109F)?
Answer: decrease in the Km

Question: Which results are given for `CCc1cn([C@H]2O[C@@H](CO)[C@H](O)[C@H]2F)c(=O)[nH]c1=O` [L-[^18F]FEAU]?
Answer: overall background (biodistribution) ([1]; candidate 18F nucleoside analog probes in mice, FIG. 7B): lowest overall background; test of reporter system with probe (Baf-3 cells): successfully tested

Question: For `Cc1cn([C@@H]2C[C@@H](O)[C@H](CO)O2)c(=O)[nH]c1=O` [L-dT], which “increase of kcat compared with TK2” value (TK2-N93D/L109F; 37° C., 1 mM ATP) is on record?
Answer: 54%

Question: And the “decrease of kcat relative to WT TK2” value (TK2-N93D)?
Answer: 48%

Question: And the “change of Km by the L109F mutation” value (TK2-L109F)?
Answer: decrease in the Km

Question: Which results are given for `O=c1[nH]c(=O)n([C@H]2C[C@H]([18F])[C@@H](CO)O2)cc1Br` [^18F-FBU, 3′-[^18F]fluoro-2′,3′-dideoxy-5-bromouridine]?
Answer: biodistribution in mice [1]: excellent biodistribution; phosphorylation by endogenous mammalian thymidine kinases (TK1): cannot be phosphorylated; microsomal stability over time [2]: decrease stability over time

Question: What does the source list for `O=c1[nH]c(=O)n([C@H]2C[C@H]([18F])[C@@H](CO)O2)cc1Cl` [^18F-FCU, 3′-[^18F]fluoro-2′,3′-dideoxy-5-chlorouridine]?
Answer: biodistribution in mice [1]: excellent biodistribution; phosphorylation by endogenous mammalian thymidine kinases (TK1): cannot be phosphorylated; microsomal stability over time [2]: only FBU showed decrease stability over time

Question: With `O=c1[nH]c(=O)n([C@H]2C[C@H]([18F])[C@@H](CO)O2)cc1F` [^18F-FFU, 3′-[^18F]fluoro-2′,3′-dideoxy-5-fluorouridine] as the molecule, how does the biodistribution in mice [1] read?
Answer: excellent biodistribution

Question: And the “phosphorylation by endogenous mammalian thymidine kinases” value (TK1)?
Answer: cannot be phosphorylated

Question: Which results are given for `O=c1ccn([C@H]2C[C@H]([18F])[C@@H](CO)O2)c(=O)[nH]1` [^18F-FddUrd, 3′-[^18F]fluoro-2′,3′-dideoxy-uridine]?
Answer: biodistribution in mice [1]: excellent biodistribution; phosphorylation by endogenous mammalian thymidine kinases (TK1): cannot be phosphorylated; microsomal stability over time [2]: only FBU showed decrease stability over time

Question: Which “kobs as percentage of that of TK2” value (TK2-N93D/L109F; 200 μM substrate) does the source give for `Nc1ccn([C@H]2C[C@H](O)[C@@H](CO)O2)c(=O)n1` [dC, deoxycytidine] here?
Answer: 62%

B1: TK2-N93D: truncated human thymidine kinase 2 with N93D point mutation, PET reporter gene product (SEQ ID NO: 3) (protein, listed as Homo sapiens)
chain: MSVICVEGNIASGKTTCLEFFSNATDVEVLTEPVSKWRNVRGHDPLGLMYHDASRWGLTLQTYVQLTMLDRHTRPQVSSVRLMERSIHSARYIFVENLYRSGKMPEVDYVVLSEWFDWILRNMDVSVDLIVYLRTNPETCYQRLKKRCREEEKVIPLEYLEAIHHLHEEWLIKGSLFPMAAPVLVIEADHHMERMLELFEQNRDRILTPENRKHCP
Question: Which results are given for B1?
Answer: growth rate of transduced cells (L1210 cells): did not affect; intracellular dNTP pools (L1210 cells): did not affect
